Results taken from patent publication US12370235B2, “Synthetic, non-natural antimicrobial peptides inspired by Staphylococcus auricularis delta toxin” (University of Saskatchewan, priority 2021, dated 2025).
Ends that are not written are not given here.

How the values were obtained:
S. aureus ATCC 29213 = test: MIC, broth dilution; format: cell-based, Staphylococcus aureus; conditions: Table 5; STIP3 variants, highest concentration 100 μg/mL
Procedure, shortened: (§1)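 Peptides (95% purity) were serially diluted 2-fold and mixed with bacteria diluted to OD 6×10^−4 in cation-adjusted Mueller Hinton broth. Standing cultures were incubated overnight at 37° C. MIC was the lowest peptide concentration with no observed growth.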

[1] = test system: S. aureus ATCC 33592 (MRSA SCCmec type III); test: MIC, broth dilution; format: cell-based, Staphylococcus aureus; conditions: Table 5; STIP3 variants, highest concentration 100 μg/mL
Procedure, shortened: as §1

[2] = test system: S. aureus ATCC BAA-1683 (MRSA SCCmec type IV); test: MIC, broth dilution; format: cell-based, Staphylococcus aureus; conditions: Table 5; STIP3 variants, highest concentration 100 μg/mL
Procedure, shortened: as §1

[3] = test system: S. aureus ATCC BAA-2094 (MRSA SCCmec type V); test: MIC, broth dilution; format: cell-based, Staphylococcus aureus; conditions: Table 5; STIP3 variants, highest concentration 100 μg/mL
Procedure, shortened: as §1

[4] = test system: S. aureus ATCC BAA-2313 (MRSA SCCmec type XI); test: MIC, broth dilution; format: cell-based, Staphylococcus aureus; conditions: Table 5; STIP3 variants, highest concentration 100 μg/mL
Procedure, shortened: as §1

[5] = test system: S. aureus ATCC BAA-41 (MRSA SCCmec type II); test: MIC, broth dilution; format: cell-based, Staphylococcus aureus; conditions: Table 5; STIP3 variants, highest concentration 100 μg/mL
Procedure, shortened: as §1

[6] = test system: S. aureus ATCC BAA-42 (MRSA SCCmec type VI); test: MIC, broth dilution; format: cell-based, Staphylococcus aureus; conditions: Table 5; STIP3 variants, highest concentration 100 μg/mL
Procedure, shortened: as §1

[7] = test system: S. aureus ATCC BAA-44 (MRSA SCCmec type I); test: MIC, broth dilution; format: cell-based, Staphylococcus aureus; conditions: Table 5; STIP3 variants, highest concentration 100 μg/mL
Procedure, shortened: as §1

[8] = test system: S. aureus / MRSA (ATCC MP-2 panel); format: cell-based, Staphylococcus aureus; conditions: MIC screen, in words
Experimental: In order to begin to characterize STIP3-1 and potential sites amenable to modification, an alanine scanning experiment was performed. A total of 16 peptides with single alanine substitutions were assessed to inform on the importance of individual residues to antimicrobial activity. […] Next a series of thirty STIP3-1 variants were designed, guided by the aforementioned alanine scan and a previous report that the central α-helical core of the S. aureus δ-toxin could be converted into AMP through the inclusion of additional lysine residues^39. The collection included ten members with single substitutions relative to STIP3-1 and others that incorporated a number of changes that were designed to increase overall and local cationic charge as well as hydrophobic character (Table 5). Each of the STIPs was screened, including STIP3-1 to STIP-31, for antibiotic activity against a methicillin-sensitive S. aureus test organism and a panel of 7 MRSA strains defined by distinct SCCmec genotypes (FIG. 2; ATCC MP-2).
Determination of minimum inhibitory concentrations. The MICs were measured for bioactive peptides identified from the initial screen. For bacterial studies, cation-adjusted Mueller Hinton (MH) broth was used as the growth medium whereas YPD was used for C. albicans. Bacterial cultures were diluted to a OD value of 6×10^−4 in MH broth and a 180 μl volume was mixed with 20 μl of peptide arrayed as 2-fold dilution series in a 96-well plate. For the positive control, 20 μl of sterile water was used. Plates were incubated as standing cultures overnight at 37° C. The lowest peptide concentration that resulted no observed microbial growth after an overnight treatment was defined as the MIC.

[9] = test system: Mannheimia haemolytica ATCC 33393; test: MIC, broth dilution; format: cell-based; conditions: Table 11; highest concentration 25 μg/mL
Procedure, shortened: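 Read-out is the lowest peptide concentration showing no growth after an overnight standing culture at 37 °C. Two-fold serial dilutions of 95%-pure peptide were tested against M. haemolytica ATCC 33393 at OD 6×10^−4 in cation-adjusted MH broth.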

C. albicans MYA-2876 = test: MIC, YPD broth; format: cell-based, Candida albicans; conditions: Table 8
Procedure, shortened: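 Yeast cells were diluted in YPD broth, and 180 μl aliquots were mixed with 20 μl of peptide from 2-fold serial dilutions in flat-bottom 96-well microtitre plates. Wells receiving 20 μl sterile water served as controls. After standing incubation overnight at 37° C, the MIC was taken as the lowest peptide concentration with no visible microbial growth.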

C. albicans Y537 = test: MIC, YPD broth; format: cell-based, Candida albicans; conditions: Table 8
[10] = test system: Candida duobushaemulonii AR 391; test: MIC, YPD broth, CDC and FDA AR Candida isolate panel; format: cell-based; conditions: Table 9 below the line: only 200 or 100 μg/mL tested; values reported as 100 are ≤100 μg/mL
Procedure, shortened: (§2)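 Inhibitory concentration was assigned over a 2-fold peptide dilution range after incubation without shaking at 37° C overnight; inoculum was set to optical density […] and water-only wells served as control.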

[11] = test system: Candida duobushaemulonii AR 392; test: as above; format: cell-based; conditions: Table 9 below the line: only 200 or 100 μg/mL tested; values reported as 100 are ≤100 μg/mL
Procedure, shortened: as §2

[12] = test system: Candida duobushaemulonii AR 394; test: as above; format: cell-based; conditions: Table 9 below the line: only 200 or 100 μg/mL tested; values reported as 100 are ≤100 μg/mL
Procedure, shortened: as §2

[13] = test system: Candida haemulonii AR 393; test: as above; format: cell-based; conditions: Table 9 below the line: only 200 or 100 μg/mL tested; values reported as 100 are ≤100 μg/mL
Procedure, shortened: as §2

[14] = test system: Candida haemulonii AR 395; test: as above; format: cell-based; conditions: Table 9 below the line: only 200 or 100 μg/mL tested; values reported as 100 are ≤100 μg/mL
Procedure, shortened: as §2

Candida krusei AR 397 = test: as above; format: cell-based; conditions: Table 9 below the line: only 200 or 100 μg/mL tested; values reported as 100 are ≤100 μg/mL
Procedure, shortened: as §2

[15] = test system: Candida lusitaniae AR 398; test: as above; format: cell-based; conditions: Table 9 below the line: only 200 or 100 μg/mL tested; values reported as 100 are ≤100 μg/mL
Procedure, shortened: as §2

Kodamae ohmeri AR 396 = test: as above; format: cell-based; conditions: Table 9 below the line: only 200 or 100 μg/mL tested; values reported as 100 are ≤100 μg/mL
Procedure, shortened: as §2

[16] = test system: Saccharomyces cerevisiae AR 399; test: as above; format: cell-based; conditions: Table 9 below the line: only 200 or 100 μg/mL tested; values reported as 100 are ≤100 μg/mL
Procedure, shortened: as §2

[17] = test system: Saccharomyces cerevisiae AR 400; test: as above; format: cell-based; conditions: Table 9 below the line: only 200 or 100 μg/mL tested; values reported as 100 are ≤100 μg/mL
Procedure, shortened: as §2

Sequence	MIC S. aureus ATCC 29213 (S. aureus ATCC 29213)	MIC S. aureus ATCC 33592 (III) [1]	MIC S. aureus ATCC BAA 1683 (IV) [2]	MIC S. aureus ATCC BAA 2094 (V) [3]	MIC S. aureus ATCC BAA 2313 (XI) [4]	MIC S. aureus ATCC BAA 41 (II) [5]	MIC S. aureus ATCC BAA 42 (VI) [6]	MIC S. aureus ATCC BAA 44 (I) [7]	inhibition of S. aureus [8]	MIC (μg/mL) M. haemolytica [9]	MIC C. albicans MYA-2876 (C. albicans MYA-2876)	MIC (μg/mL) Candida duobushaemulonii AR 391 [10]	MIC (μg/mL) Candida duobushaemulonii AR 392 [11]	MIC (μg/mL) Candida duobushaemulonii AR 394 [12]	MIC (μg/mL) Candida haemulonii AR 393 [13]	MIC (μg/mL) Candida haemulonii AR 395 [14]	MIC (μg/mL) Candida krusei AR 397 (Candida krusei AR 397)	MIC (μg/mL) Candida lusitaniae AR 398 [15]	MIC (μg/mL) Kodamae ohmeri AR 396 (Kodamae ohmeri AR 396)	MIC (μg/mL) Saccharomyces cerevisiae AR 399 [16]	other results
TVKVLVKWILKVVAKFA [STIP3-26, TVKVLVKWILKVVAKFA]	> (no inhibition was observed at the highest concentration of peptide tested: 100 μg/mL for the STIP3 variants)	> (no inhibition was observed at the highest concentration of peptide tested: 100 μg/mL for the STIP3 variants)	> (no inhibition was observed at the highest concentration of peptide tested: 100 μg/mL for the STIP3 variants)	> (no inhibition was observed at the highest concentration of peptide tested: 100 μg/mL for the STIP3 variants)	> (no inhibition was observed at the highest concentration of peptide tested: 100 μg/mL for the STIP3 variants)	> (no inhibition was observed at the highest concentration of peptide tested: 100 μg/mL for the STIP3 variants)	> (no inhibition was observed at the highest concentration of peptide tested: 100 μg/mL for the STIP3 variants)	> (no inhibition was observed at the highest concentration of peptide tested: 100 μg/mL for the STIP3 variants)	incapable of inhibiting S. aureus	> (> symbol indicates that no inhibition was observed at the highest concentration of peptide tested: 25 μg/mL)	> (> symbol indicates that no inhibition was observed at the highest concentration of peptide tested: 100 μg/mL)	> (values below the line were determined using two concentrations of peptide 200 or 100 μg/mL)	> (values below the line were determined using two concentrations of peptide 200 or 100 μg/mL)	> (values below the line were determined using two concentrations of peptide 200 or 100 μg/mL)	> (values below the line were determined using two concentrations of peptide 200 or 100 μg/mL)	> (values below the line were determined using two concentrations of peptide 200 or 100 μg/mL)	> (values below the line were determined using two concentrations of peptide 200 or 100 μg/mL)	≤ 100 µg/mL	> (values below the line were determined using two concentrations of peptide 200 or 100 μg/mL)	≤ 100 µg/mL	MIC C. albicans Y537 (C. albicans Y537): > (> symbol indicates that no inhibition was observed at the highest concentration of peptide tested: 100 μg/mL); MIC (μg/mL) Saccharomyces cerevisiae AR 400 [17]: ≤ 100 µg/mL
TVGVLVKWILNVVAKFA [STIP3-24, TVGVLVKWILNVVAKFA]	> (no inhibition was observed at the highest concentration of peptide tested: 100 μg/mL for the STIP3 variants)	> (no inhibition was observed at the highest concentration of peptide tested: 100 μg/mL for the STIP3 variants)	> (no inhibition was observed at the highest concentration of peptide tested: 100 μg/mL for the STIP3 variants)	> (no inhibition was observed at the highest concentration of peptide tested: 100 μg/mL for the STIP3 variants)	> (no inhibition was observed at the highest concentration of peptide tested: 100 μg/mL for the STIP3 variants)	> (no inhibition was observed at the highest concentration of peptide tested: 100 μg/mL for the STIP3 variants)	> (no inhibition was observed at the highest concentration of peptide tested: 100 μg/mL for the STIP3 variants)	> (no inhibition was observed at the highest concentration of peptide tested: 100 μg/mL for the STIP3 variants)	incapable of inhibiting S. aureus	> (> symbol indicates that no inhibition was observed at the highest concentration of peptide tested: 25 μg/mL)	> (> symbol indicates that no inhibition was observed at the highest concentration of peptide tested: 100 μg/mL)	> (values below the line were determined using two concentrations of peptide 200 or 100 μg/mL)	> (values below the line were determined using two concentrations of peptide 200 or 100 μg/mL)	> (values below the line were determined using two concentrations of peptide 200 or 100 μg/mL)	> (values below the line were determined using two concentrations of peptide 200 or 100 μg/mL)	> (values below the line were determined using two concentrations of peptide 200 or 100 μg/mL)	> (values below the line were determined using two concentrations of peptide 200 or 100 μg/mL)	≤ 100 µg/mL	> (values below the line were determined using two concentrations of peptide 200 or 100 μg/mL)	≤ 100 µg/mL	MIC (μg/mL) Saccharomyces cerevisiae AR 400 [17]: ≤ 100 µg/mL
